Values after ≈ are worked out from the molar mass of the structure shown.
Settings: buffer; pH 7.4; 200.0 µM

With CC12CCC(C(=O)Nc3nc4ccccc4s3)(OC1=O)C2(C)C (stereo unspecified) as the compound, how does the solubility kinetic read?
Its solubility kinetic is 34.7 µg/mL (≈ 105 µM).

For CCn1ccnc1C(O)(c1ccccc1)c1ccccc1, which solubility kinetic is on record?
Its solubility kinetic is greater than 41.8 µg/mL.

Which solubility kinetic does the source give for CC(C)(C)c1ccccc1OCC(=O)NCCCn1ccnc1 here?
The solubility kinetic was greater than 47.3 µg/mL.

With CCOc1ncccc1C(=O)OCC(=O)Nc1ccc(Cl)cn1 as the compound, how does the solubility kinetic read?
The solubility kinetic was 15 µg/mL (≈ 44.7 µM).

Which solubility kinetic does the source give for CC(C)c1ccc(CN2C(=O)c3ccccc3S2(=O)=O)cc1 here?
Its solubility kinetic is 1.2 µg/mL (≈ 3.8 µM).

For C/C=C/C(=O)OCC(=O)Nc1ccc(OC)c(OC)c1, which solubility kinetic is on record?
The solubility kinetic was greater than 41.9 µg/mL.

Which solubility kinetic does the source give for Cc1ccc(NC(=O)NCC(c2ccccc2)N(C)C)cc1 (stereo unspecified) here?
The solubility kinetic was greater than 44.6 µg/mL.

For Cc1ccc(S(=O)(=O)NC(=O)COc2ccccc2)cc1, which solubility kinetic is on record?
Its solubility kinetic is greater than 45.8 µg/mL.

For Cc1[nH]c2ccc(C(=O)N3CCN(C)CC3)cc2c1C, which solubility kinetic is on record?
The solubility kinetic was greater than 40.7 µg/mL.

Which solubility kinetic does the source give for CC(C)=CC1C(C(=O)NCCOc2ccccc2)C1(C)C (stereo unspecified) here?
Its solubility kinetic is 17.7 µg/mL (≈ 61.6 µM).

Which solubility kinetic does the source give for CCN(C(=O)CSc1nc2ccccc2[nH]1)C1CCS(=O)(=O)C1 (stereo unspecified) here?
The solubility kinetic was greater than 53 µg/mL.

For Cc1ccc(OCC(=O)Nc2ccncc2)c(C)c1, which solubility kinetic is on record?
Its solubility kinetic is 32.1 µg/mL (≈ 125 µM).

With O=C(COC(=O)c1ccccc1F)NC(=O)NC1CCCC1 as the compound, how does the solubility kinetic read?
Its solubility kinetic is greater than 46.2 µg/mL.

Which solubility kinetic does the source give for Cc1cc(C)c(NC(=O)CCCN2CCCC2)c(C)c1 here?
The solubility kinetic was greater than 41.2 µg/mL.

For O=C(COC(=O)Cc1c(F)cccc1Cl)NCc1ccc2c(c1)OCO2, which solubility kinetic is on record?
The solubility kinetic was 46.5 µg/mL (≈ 122 µM).

Which solubility kinetic does the source give for Nc1nc(C(c2ccccc2)c2ccccc2)cs1 here?
The solubility kinetic was 11 µg/mL (≈ 41.3 µM).

Which solubility kinetic does the source give for CC(=O)COC(=O)C1=NN(c2ccccc2)C(=O)CC1 here?
Its solubility kinetic is greater than 41.1 µg/mL.

Which solubility kinetic does the source give for O=C(COC(=O)c1ccc(Cl)nc1)NCCc1ccccc1 here?
Its solubility kinetic is 45.5 µg/mL (≈ 143 µM).

With S=C1NCN(C2CCCCC2)CN1CCc1ccccc1 as the compound, how does the solubility kinetic read?
Its solubility kinetic is 16.1 µg/mL (≈ 53.1 µM).

With O=S(=O)(NC(=S)NC1CCCCC1)c1ccc(Cl)cc1 as the compound, how does the solubility kinetic read?
The solubility kinetic was greater than 49.9 µg/mL.

Which solubility kinetic does the source give for CCCSC1C(C)=C(C)C(=O)N1Cc1ccccc1 (stereo unspecified) here?
Its solubility kinetic is 35.5 µg/mL (≈ 129 µM).

With COc1ccc(Oc2ncccc2NC(=O)c2cccc(C)c2C)cc1 as the compound, how does the solubility kinetic read?
The solubility kinetic was 5.9 µg/mL (≈ 16.9 µM).

With COc1ccccc1NC(=O)C1CC(C)OC1=O (stereo unspecified) as the compound, how does the solubility kinetic read?
The solubility kinetic was greater than 37.4 µg/mL.

Which solubility kinetic does the source give for Cc1sc2ncnc(SCC(=O)N3CCCC(C(F)(F)F)C3)c2c1C (stereo unspecified) here?
The solubility kinetic was 2.7 µg/mL (≈ 6.93 µM).

For COc1ccc(S(=O)(=O)N2CCN(C(=O)C3CCCCC3)CC2)cc1, which solubility kinetic is on record?
The solubility kinetic was 53.7 µg/mL (≈ 147 µM).

Which solubility kinetic does the source give for O=C(N/N=C/c1ccccc1Br)C1CC1 here?
Its solubility kinetic is greater than 40.1 µg/mL.

For CCn1c(Oc2ccccc2F)nc2c1c(=O)n(C)c(=O)n2C, which solubility kinetic is on record?
Its solubility kinetic is greater than 47.7 µg/mL.

For O=C(NCc1ccco1)c1ccc(-c2ccc(Cl)cc2)o1, which solubility kinetic is on record?
The solubility kinetic was 1.2 µg/mL (≈ 3.98 µM).

Which solubility kinetic does the source give for Cc1ccc(C(=O)Nc2c(C)cc(C)c3cccnc23)cc1 here?
Its solubility kinetic is 0.5 µg/mL (≈ 1.72 µM).

For O=C(CCCN1CCC2(CC1)C(=O)NCN2c1ccccc1)c1ccc(F)cc1, which solubility kinetic is on record?
Its solubility kinetic is 50.1 µg/mL (≈ 127 µM).

With O=C(OCC(=O)c1ccccc1Br)c1ccncc1 as the compound, how does the solubility kinetic read?
Its solubility kinetic is greater than 48 µg/mL.

For CC1CC(OC(=O)c2ccccc2)(c2ccccc2)C(C)CN1C (stereo unspecified), which solubility kinetic is on record?
The solubility kinetic was greater than 48.5 µg/mL.

For O=C(Nc1nc2ccsc2c(=O)s1)c1ccc(Cl)cc1, which solubility kinetic is on record?
Its solubility kinetic is less than 0.3 µg/mL.

Which solubility kinetic does the source give for Cc1cccc(CSCc2ccc(C(=O)NCC3CCCO3)o2)c1 (stereo unspecified) here?
The solubility kinetic was 46.6 µg/mL (≈ 135 µM).

Which solubility kinetic does the source give for COc1ccc(NC(=O)CC2C(=O)NCCN2C(=O)c2ccccc2)cc1 (stereo unspecified) here?
The solubility kinetic was greater than 55.1 µg/mL.

For COc1ccc(N2CCN(CCc3ccncc3)CC2)cc1, which solubility kinetic is on record?
The solubility kinetic was greater than 44.6 µg/mL.

For CC(=O)N1CCN(CCS(=O)(=O)c2cc(Cl)ccc2Cl)CC1, which solubility kinetic is on record?
The solubility kinetic was greater than 54.8 µg/mL.

For Nc1ncc(S(=O)(=O)c2ccc(Cl)cc2)c(N)n1, which solubility kinetic is on record?
The solubility kinetic was 31.4 µg/mL (≈ 110 µM).

With COc1ccc(NC(=O)CN(C)CC(=O)N(CC(C)C)c2c(N)n(CC(C)C)c(=O)[nH]c2=O)cc1 as the compound, how does the solubility kinetic read?
The solubility kinetic was greater than 73.3 µg/mL.

For CNC(=O)COC(=O)/C=C/c1cccc(F)c1, which solubility kinetic is on record?
Its solubility kinetic is greater than 35.6 µg/mL.

With COc1ccc(-c2cn3cccnc3n2)cc1 as the compound, how does the solubility kinetic read?
The solubility kinetic was greater than 33.8 µg/mL.

For O=C1NC(=O)N(c2ccccc2)C1=O, which solubility kinetic is on record?
The solubility kinetic was greater than 28.5 µg/mL.

For COc1ccc(-c2cc(C(=O)Nc3ccc(F)cc3F)no2)cc1, which solubility kinetic is on record?
Its solubility kinetic is less than 0.4 µg/mL.

Which solubility kinetic does the source give for COC(=O)c1sc(SC)c2c1CC(C)(C)C/C2=N/O here?
Its solubility kinetic is less than 0.6 µg/mL.

Which solubility kinetic does the source give for Oc1ccc(-c2csc(Nc3ccccn3)n2)c(O)c1 here?
Its solubility kinetic is 4.4 µg/mL (≈ 15.4 µM).

Which solubility kinetic does the source give for CC(C)(C)OC(=O)NCCCCCO here?
Its solubility kinetic is greater than 30.5 µg/mL.

For O=C(NCCCCc1ccccc1)c1ccccc1Br, which solubility kinetic is on record?
Its solubility kinetic is 8.6 µg/mL (≈ 25.9 µM).

For O=C1c2ccccc2C(O)(c2ccccc2)N1C1CC1 (stereo unspecified), which solubility kinetic is on record?
The solubility kinetic was 38.3 µg/mL (≈ 144 µM).

With Cn1c(N)c(C(=O)COC(=O)/C=C/c2ccc(Cl)c(Cl)c2)c(=O)n(C)c1=O as the compound, how does the solubility kinetic read?
Its solubility kinetic is 2.9 µg/mL (≈ 7.03 µM).

For NC(=O)c1sc2nc3c(cc2c1N)CCC3, which solubility kinetic is on record?
Its solubility kinetic is 31.3 µg/mL (≈ 134 µM).

With COc1ccc(CCC(=O)OCc2csc(CC(=O)Nc3ccc(C)cc3)n2)cc1OC as the compound, how does the solubility kinetic read?
Its solubility kinetic is 9.9 µg/mL (≈ 21.8 µM).

For C=CCn1c(COc2ccccc2)nc2ccccc21, which solubility kinetic is on record?
Its solubility kinetic is 31.9 µg/mL (≈ 121 µM).

For O=C(NCCc1ccc(Cl)cc1)c1ccc2c(c1)OCO2, which solubility kinetic is on record?
The solubility kinetic was 1.2 µg/mL (≈ 3.95 µM).

For Cc1ccccc1NC(=O)c1sc(NC(=O)C2CC2)nc1C, which solubility kinetic is on record?
The solubility kinetic was 4.8 µg/mL (≈ 15.2 µM).

For CC(CCN1CCN(c2ccccc2)CC1)c1ccccc1.Cl (stereo unspecified), which solubility kinetic is on record?
Its solubility kinetic is 29.7 µg/mL.

Which solubility kinetic does the source give for O=C(Cc1ccccc1)N1CCC(c2ccccc2)C1 (stereo unspecified) here?
Its solubility kinetic is 38.6 µg/mL (≈ 145 µM).

For Nc1nc(SCC(=O)Nc2cccnc2Cl)n[nH]1, which solubility kinetic is on record?
The solubility kinetic was greater than 42.7 µg/mL.

For Cc1cccc(N2N=C(C(=O)N3Cc4ccccc4CC3C(N)=O)CCC2=O)c1 (stereo unspecified), which solubility kinetic is on record?
Its solubility kinetic is greater than 58.6 µg/mL.

Which solubility kinetic does the source give for CCCCNC(=O)Nc1nc2ccc(CC)cc2s1 here?
Its solubility kinetic is 0.7 µg/mL (≈ 2.52 µM).

Which solubility kinetic does the source give for S=C(NCCc1ccccc1)Nc1ccccc1 here?
Its solubility kinetic is 31.5 µg/mL (≈ 123 µM).

For Cc1nc(N2CCOCC2)nc(Oc2ccccc2F)c1[N+](=O)[O-], which solubility kinetic is on record?
The solubility kinetic was 1.5 µg/mL (≈ 4.49 µM).

— PubChem BioAssay AID1996
